Experimental data taken from ChEMBL document CHEMBL1201861, “Genomics of Drug Sensitity in Cancer screening data, Wellcome Trust Sanger Institute”.

Experiments:
SJRH30 = assay: cells; assay type: functional, cell-based; details: Homo sapiens;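 note: growth inhibition of human SJRH30 cells, read out with a cell viability assay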
Description: SANGER: Inhibition of human SJRH30 cell growth in a cell viability assay.

HTC-C3 = assay: cells; assay type: functional, cell-based; details: Homo sapiens;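 note: inhibition of cell growth, read out with a cell viability assay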
Description: SANGER: Inhibition of human HTC-C3 cell growth in a cell viability assay.

SW1783 = assay: cells; assay type: functional, cell-based; details: Homo sapiens
Description: SANGER: Inhibition of human SW1783 cell growth in a cell viability assay.

ESS-1 = assay: cells; assay type: functional, cell-based; details: Homo sapiens;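 note: growth inhibition of human ESS-1 cells, read out by a cell viability assay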
Description: SANGER: Inhibition of human ESS-1 cell growth in a cell viability assay.

MDA-MB-453 = assay: cells; assay type: functional, cell-based; details: Homo sapiens
Description: SANGER: Inhibition of human MDA-MB-453 cell growth in a cell viability assay.

OE33 = assay: cells; assay type: functional, cell-based; details: Homo sapiens;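 note: growth inhibition of human OE33 cells, measured by a cell viability assay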
Description: SANGER: Inhibition of human OE33 cell growth in a cell viability assay.

MCF7 = assay: cells; assay type: functional, cell-based; details: Homo sapiens;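 note: growth inhibition of human MCF7 cells, read out with a cell viability assay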
Description: SANGER: Inhibition of human MCF7 cell growth in a cell viability assay.

ME-180 = assay: cells; assay type: functional, cell-based; details: Homo sapiens;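 note: cell viability assay measuring growth inhibition of ME-180 cells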
Description: SANGER: Inhibition of human ME-180 cell growth in a cell viability assay.

LCLC-103H cell line = assay: cells; assay type: functional, cell-based; details: Homo sapiens
Description: SANGER: Inhibition of human LCLC-103H cell growth in a cell viability assay.

COLO-678 = assay: cells; assay type: functional, cell-based; details: Homo sapiens
Description: SANGER: Inhibition of human COLO-678 cell growth in a cell viability assay.

AGS = assay: cells; assay type: functional, cell-based; details: Homo sapiens;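 note: growth inhibition of AGS cells, determined with a cell viability assay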
Description: SANGER: Inhibition of human AGS cell growth in a cell viability assay.

LCLC-97TM1 = assay: cells; assay type: functional, cell-based; details: Homo sapiens;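 note: cell viability assay measuring growth inhibition of human LCLC-97TM1 cells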
Description: SANGER: Inhibition of human LCLC-97TM1 cell growth in a cell viability assay.

D-392MG = assay: cells; assay type: functional, cell-based; details: Homo sapiens
NCI-H2342 = assay: cells; assay type: functional, cell-based; details: Homo sapiens;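 note: growth inhibition of the cancer cell line, determined with a cell viability assay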
Description: SANGER: Inhibition of human NCI-H2342 cell growth in a cell viability assay.

LN-405 = assay: cells; assay type: functional, cell-based; details: Homo sapiens
Description: SANGER: Inhibition of human LN-405 cell growth in a cell viability assay.

HGC-27 = assay: cells; assay type: functional, cell-based; details: Homo sapiens;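 note: growth inhibition of human HGC-27 cells, read out in a cell viability assay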
Description: SANGER: Inhibition of human HGC-27 cell growth in a cell viability assay.

G-402 = assay: cells; assay type: functional, cell-based; details: Homo sapiens
Description: SANGER: Inhibition of human G-402 cell growth in a cell viability assay.

A673 = assay: cells; assay type: functional, cell-based; details: Homo sapiens;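 note: growth inhibition of human A673 cells, read out through a cell viability assay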
Description: SANGER: Inhibition of human A673 cell growth in a cell viability assay.

MKN-28 = assay: cells; assay type: functional, cell-based; details: Homo sapiens;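 note: cell viability assay read-out, IC50 reflects suppression of growth of human MKN-28 cells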
Description: SANGER: Inhibition of human MKN28 cell growth in a cell viability assay.

MHH-ES-1 = assay: cells; assay type: functional, cell-based; details: Homo sapiens
Description: SANGER: Inhibition of human MHH-ES-1 cell growth in a cell viability assay.

SKG-IIIa = assay: cells; assay type: functional, cell-based; details: Homo sapiens;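 note: cell growth inhibition, read out with a cell viability assay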
Description: SANGER: Inhibition of human SKG-IIIa cell growth in a cell viability assay.

UACC-893 = assay: cells; assay type: functional, cell-based; details: Homo sapiens
Description: SANGER: Inhibition of human UACC-893 cell growth in a cell viability assay.

SW48 = assay: cells; assay type: functional, cell-based; details: Homo sapiens;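 note: growth inhibition of SW48 cells, read out with a cell viability assay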
Description: SANGER: Inhibition of human SW48 cell growth in a cell viability assay.

EGI-1 = assay: cells; assay type: functional, cell-based; details: Homo sapiens;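 note: cell viability readout used to gauge growth inhibition of EGI-1 cells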
Description: SANGER: Inhibition of human EGI-1 cell growth in a cell viability assay.

U-698-M = assay: cells; assay type: functional, cell-based, Homo sapiens; details: Homo sapiens, U-698-M
Description: SANGER: Inhibition of human U-698-M cell growth in a cell viability assay.

TCC-SUP = assay: cells; assay type: functional, cell-based; details: Homo sapiens;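 note: growth inhibition of TCC-SUP cells, read out with a cell viability assay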
Description: SANGER: Inhibition of human TCCSUP cell growth in a cell viability assay.

HN = assay: cells; assay type: functional, cell-based; details: Homo sapiens
Description: SANGER: Inhibition of human HN cell growth in a cell viability assay.

Capan-2 = assay: cells; assay type: functional, cell-based; details: Homo sapiens;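 note: Capan-2 cell growth inhibition, read out with a viability assay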
Description: SANGER: Inhibition of human Capan-2 cell growth in a cell viability assay.

NCI-H748 = assay: cells; assay type: functional, cell-based, Homo sapiens; details: Homo sapiens, NCI-H748;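 note: growth inhibition of NCI-H748 cells, measured by a cell viability assay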
Description: SANGER: Inhibition of human NCI-H748 cell growth in a cell viability assay.

SIG-M5 = assay: cells; assay type: functional, cell-based, Homo sapiens; details: Homo sapiens, SIG-M5;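 note: cell viability assay read-out, measuring how strongly growth of cultured human SIG-M5 cells is inhibited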
Description: SANGER: Inhibition of human SIG-M5 cell growth in a cell viability assay.

Detroit 562 = assay: cells; assay type: functional, cell-based; details: Homo sapiens;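 note: growth inhibition of human Detroit 562 cells, read out by a cell viability assay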
Description: SANGER: Inhibition of human Detroit562 cell growth in a cell viability assay.

Raji = assay: cells; assay type: functional, cell-based, Homo sapiens; details: Homo sapiens, Raji;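 note: cell viability assay measuring inhibition of Raji cell growth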
Description: SANGER: Inhibition of human Raji cell growth in a cell viability assay.

NCI-H1693 = assay: cells; assay type: functional, cell-based; details: Homo sapiens;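 note: growth inhibition of the human cell line, read out with a cell viability assay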
Description: SANGER: Inhibition of human NCI-H1693 cell growth in a cell viability assay.

NCI-H510A = assay: cells; assay type: functional, cell-based, Homo sapiens; details: Homo sapiens, NCI-H510A;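 note: growth inhibition of NCI-H510A cells, read out with a cell viability assay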
Description: SANGER: Inhibition of human NCI-H510A cell growth in a cell viability assay.

NCI-H716 = assay: cells; assay type: functional, cell-based, Homo sapiens; details: Homo sapiens, NCI-H716;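 note: growth inhibition of human NCI-H716 cells, measured by a cell viability assay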
Description: SANGER: Inhibition of human NCI-H716 cell growth in a cell viability assay.

KP-N-YN = assay: cells; assay type: functional, cell-based; details: Homo sapiens;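 note: growth inhibition of KP-N-YN cells, read out with a cell viability assay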
Description: SANGER: Inhibition of human KP-N-YN cell growth in a cell viability assay.

NCI-H596 = assay: cells; assay type: functional, cell-based; details: Homo sapiens;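 note: growth inhibition of NCI-H596 cells, read out with a cell viability assay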
Description: SANGER: Inhibition of human NCI-H596 cell growth in a cell viability assay.

SN12C = assay: cells; assay type: functional, cell-based; details: Homo sapiens;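 note: growth inhibition of human SN12C cells, measured by a cell viability assay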
Description: SANGER: Inhibition of human SN12C cell growth in a cell viability assay.

CPC-N = assay: cells; assay type: functional, cell-based, Homo sapiens; details: Homo sapiens, CPC-N;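 note: growth inhibition of CPC-N cells, with a cell viability assay as the readout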
Description: SANGER: Inhibition of human CPC-N cell growth in a cell viability assay.

HCT-116 = assay: cells; assay type: functional, cell-based; details: Homo sapiens
Description: SANGER: Inhibition of human HCT-116 cell growth in a cell viability assay.

SK-MEL-24 = assay: cells; assay type: functional, cell-based; details: Homo sapiens;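 note: growth inhibition read out by a cell viability assay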
Description: SANGER: Inhibition of human SK-MEL-24 cell growth in a cell viability assay.

CWR22R = assay: cells; assay type: functional, cell-based; details: Homo sapiens, 22Rv1;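 note: growth inhibition of 22Rv1 cells, read out with a cell viability assay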
Description: SANGER: Inhibition of human 22RV1 cell growth in a cell viability assay.

MHH-CALL-2 = assay: cells; assay type: functional, cell-based, Homo sapiens; details: Homo sapiens, MHH-CALL-2;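 note: growth inhibition of the cell line, read out in a cell viability assay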
Description: SANGER: Inhibition of human MHH-CALL-2 cell growth in a cell viability assay.

UO-31 = assay: cells; assay type: functional, cell-based; details: Homo sapiens
Description: SANGER: Inhibition of human U031 cell growth in a cell viability assay.

HSC-4 = assay: cells; assay type: functional, cell-based; details: Homo sapiens;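 note: growth inhibition of human HSC-4 cells, read out with a cell viability assay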
Description: SANGER: Inhibition of human HSC-4 cell growth in a cell viability assay.

DU-145 = assay: cells; assay type: functional, cell-based; details: Homo sapiens
Description: SANGER: Inhibition of human DU-145 cell growth in a cell viability assay.

KOSC-2 = assay: cells; assay type: functional, cell-based; details: Homo sapiens;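 note: growth inhibition of KOSC-2 cells, read out by a cell viability assay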
Description: SANGER: Inhibition of human KOSC-2 cell growth in a cell viability assay.

23132-87 = assay: cells; assay type: functional, cell-based; details: Homo sapiens
Description: SANGER: Inhibition of human 23132-87 cell growth in a cell viability assay.

RPMI-7951 = assay: cells; assay type: functional, cell-based; details: Homo sapiens
Description: SANGER: Inhibition of human RPMI-7951 cell growth in a cell viability assay.

MFE-280 = assay: cells; assay type: functional, cell-based; details: Homo sapiens;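 note: growth inhibition of MFE-280 cells, determined with a cell viability readout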
Description: SANGER: Inhibition of human MFE-280 cell growth in a cell viability assay.

MEL-HO = assay: cells; assay type: functional, cell-based; details: Homo sapiens
Description: SANGER: Inhibition of human MEL-HO cell growth in a cell viability assay.

KMOE-2 = assay: cells; assay type: functional, cell-based, Homo sapiens; details: Homo sapiens, KMOE-2;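 note: growth inhibition of human KMOE-2 cells, read out with a cell viability assay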
Description: SANGER: Inhibition of human KMOE-2 cell growth in a cell viability assay.

JIYOYE = assay: cells; assay type: functional, cell-based, Homo sapiens; details: Homo sapiens, JIYOYE
Description: SANGER: Inhibition of human JiyoyeP-2003 cell growth in a cell viability assay.

A-427 = assay: cells; assay type: functional, cell-based; details: Homo sapiens;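 note: growth inhibition of human A-427 cells, read out by a cell viability assay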
Description: SANGER: Inhibition of human A427 cell growth in a cell viability assay.

HT55 = assay: cells; assay type: functional, cell-based; details: Homo sapiens;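 note: cell viability readout measuring growth inhibition of human HT55 cells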
Description: SANGER: Inhibition of human HT55 cell growth in a cell viability assay.

LOUCY = assay: cells; assay type: functional, cell-based, Homo sapiens; details: Homo sapiens, LOUCY;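 note: growth inhibition of human LOUCY cells, read out with a cell viability assay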
Description: SANGER: Inhibition of human LOUCY cell growth in a cell viability assay.

CESS = assay: SANGER: Inhibition of human CESS cell growth in a cell viability assay.; assay type: functional, cell-based; details: Homo sapiens, CESS
IGR-1 = assay: cells; assay type: functional, cell-based; details: Homo sapiens;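 note: growth inhibition of human IGR-1 cells, read out with a cell viability assay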
Description: SANGER: Inhibition of human IGR-1 cell growth in a cell viability assay.

EFO-27 = assay: cells; assay type: functional, cell-based; details: Homo sapiens;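 note: growth inhibition of EFO-27 cells, read out with a cell viability assay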
Description: SANGER: Inhibition of human EFO-27 cell growth in a cell viability assay.

CCCCCCCCCCCC1=C(O)C(=O)C=C(O)C1=O [EMBELIN]
IC50 (SJRH30): 7.97 µM
IC50 (HTC-C3): 12.8 µM
IC50 (SW1783): 10.1 µM
IC50 (ESS-1): 9.42 µM
IC50 (MDA-MB-453): > 32 µM
IC50 (OE33): 13.3 µM
IC50 (MCF7): 8.35 µM
IC50 (ME-180): 30.6 µM
IC50 (LCLC-103H cell line): 9.06 µM
IC50 (COLO-678): > 32 µM
IC50 (AGS): 8.63 µM
IC50 (LCLC-97TM1): 5.96 µM
IC50 (D-392MG): 16.6 µM
IC50 (NCI-H2342): 6.99 µM
IC50 (LN-405): 18.8 µM
IC50 (HGC-27): 7.95 µM
IC50 (G-402): 11.3 µM
IC50 (A673): 12.6 µM
IC50 (MKN-28): 10 µM
IC50 (MHH-ES-1): 15.8 µM
IC50 (SKG-IIIa): > 32 µM
IC50 (UACC-893): 21.7 µM
IC50 (SW48): 31.1 µM
IC50 (EGI-1): 23.1 µM
IC50 (U-698-M): 25.2 µM
IC50 (TCC-SUP): 11.6 µM
IC50 (HN): 24.8 µM
IC50 (Capan-2): 18.3 µM
IC50 (NCI-H748): > 32 µM
IC50 (SIG-M5): 1.31 µM
IC50 (Detroit 562): 11.5 µM
IC50 (Raji): 10.5 µM
IC50 (NCI-H1693): > 32 µM
IC50 (NCI-H510A): > 32 µM
IC50 (NCI-H716): > 32 µM
IC50 (KP-N-YN): > 32 µM
IC50 (NCI-H596): 15.4 µM
IC50 (SN12C): 26.6 µM
IC50 (CPC-N): > 32 µM
IC50 (HCT-116): 28.5 µM
IC50 (SK-MEL-24): 4.67 µM
IC50 (CWR22R): 22.5 µM
IC50 (MHH-CALL-2): > 32 µM
IC50 (UO-31): 19.1 µM
IC50 (HSC-4): 11.1 µM
IC50 (DU-145): 8.76 µM
IC50 (KOSC-2): > 32 µM
IC50 (23132-87): 23.3 µM
IC50 (RPMI-7951): 25.6 µM
IC50 (MFE-280): 15.7 µM
IC50 (MEL-HO): 5.11 µM
IC50 (KMOE-2): 24.3 µM
IC50 (JIYOYE): 6.94 µM
IC50 (A-427): > 32 µM
IC50 (HT55): > 32 µM
IC50 (LOUCY): 5.1 µM
IC50 (CESS): 6.24 µM
IC50 (IGR-1): 5.38 µM
IC50 (EFO-27): > 32 µM

COc1ccc(-c2cc3nccn3c(Nc3ncccc3C(N)=O)n2)cc1OC
IC50 (SJRH30): > 8 µM
IC50 (HTC-C3): > 8 µM
IC50 (SW1783): > 8 µM
IC50 (ESS-1): 4.08 µM
IC50 (MDA-MB-453): > 8 µM
IC50 (OE33): > 8 µM
IC50 (MCF7): 1.15 µM
IC50 (ME-180): > 8 µM
IC50 (LCLC-103H cell line): 3.08 µM
IC50 (COLO-678): > 8 µM
IC50 (AGS): > 8 µM
IC50 (LCLC-97TM1): 0.57 µM
IC50 (D-392MG): > 8 µM
IC50 (NCI-H2342): 1.82 µM
IC50 (LN-405): > 8 µM
IC50 (HGC-27): 2.7 µM
IC50 (G-402): 6.9 µM
IC50 (A673): > 8 µM
IC50 (MKN-28): 4.49 µM
IC50 (MHH-ES-1): > 8 µM
IC50 (SKG-IIIa): > 8 µM
IC50 (UACC-893): > 8 µM
IC50 (SW48): 7.73 µM
IC50 (EGI-1): > 8 µM
IC50 (U-698-M): 1.02 µM
IC50 (TCC-SUP): > 8 µM
IC50 (HN): > 8 µM
IC50 (Capan-2): > 8 µM
IC50 (NCI-H748): > 8 µM
IC50 (SIG-M5): 0.848 µM
IC50 (Detroit 562): 3.88 µM
IC50 (Raji): 5.51 µM
IC50 (NCI-H1693): > 8 µM
IC50 (NCI-H510A): > 8 µM
IC50 (NCI-H716): > 8 µM
IC50 (KP-N-YN): > 8 µM
IC50 (NCI-H596): > 8 µM
IC50 (SN12C): > 8 µM
IC50 (CPC-N): > 8 µM
IC50 (HCT-116): 3.98 µM
IC50 (SK-MEL-24): > 8 µM
IC50 (CWR22R): > 8 µM
IC50 (MHH-CALL-2): > 8 µM
IC50 (UO-31): 6.71 µM
IC50 (HSC-4): > 8 µM
IC50 (DU-145): 7.97 µM
IC50 (KOSC-2): > 8 µM
IC50 (23132-87): > 8 µM
IC50 (RPMI-7951): 3.48 µM
IC50 (MFE-280): > 8 µM
IC50 (MEL-HO): 2.95 µM
IC50 (KMOE-2): 1.98 µM
IC50 (JIYOYE): 1.55 µM
IC50 (A-427): 4.6 µM
IC50 (HT55): > 8 µM
IC50 (LOUCY): 3.65 µM
IC50 (CESS): 1.45 µM
IC50 (IGR-1): 6.54 µM
IC50 (EFO-27): 2.06 µM
